Laboratory results published in PMC10856415, “Lactoferricin B Combined with Antibiotics Exhibits Leukemic Selectivity and Antimicrobial Activity” (Molecules, 2024).
Square brackets hold non-standard residues; d marks the D form. Ends that are not written are not given here. Peptide text beside a SMILES is read from it. * marks the point of attachment. X1 = N[C@@H](CS*)C(=O)N1CCN(c2cc3c(cc2F)c(=O)c(C(=O)O)cn3C2CC2)CC1; X2 = O=C(Cn1cc(CC(O)(Cn2cncn2)c2ccc(F)cc2F)nn1)*; Nle = CCCC[C@H](N)C(=O)O

What was measured:
S. aureus = assay: Switch of S. aureus asymmetric phosphatidylserine location (Annexin V / 7AAD); format: cell-based, Staphylococcus aureus; details: MIC concentrations, first hour to 6 h
Procedure: Bacterial cultures with an […], as utilized in bacteriostatic experiments (Ptaszyńska et al., 2019 [16, 48]), were plated on Petri dishes. Compounds were added at the MIC concentration to the test sample, while no compound was added to the negative control. After an appropriate incubation period (45 min, […]), samples were collected and promptly washed with PBS. The pellet was then suspended in 100 μL of annexin binding buffer (BioSource International, Camarillo, CA, USA), which included 0.25 μL of 7-AAD (7-aminoactinomycin D, 1 mg/mL, Sigma) and 1 μL of Annexin–FITC (Thermo Fisher, Waltham, MA, USA). Following the addition of 400 μL of annexin binding buffer, the samples were left in the dark for 15 min. Subsequently, the samples were placed on ice and immediately read by the Guava EasyCyte (Merck-Millipore, Burlington, MA, USA). Flow results were analyzed with the free online software https://floreada.io/ (accessed on 30 November 2023; the last update was carried out in June 2023).

HL60 [1] = assay: Mitochondrial potential, DiOC6(3) flow cytometry in HL60; format: cell-based, human; details: HL60 stained with DIOC6(3)
Procedure: HL60 was incubated with 100 nM 3,3′-dihexyloxacarbocyanine iodide (DiOC6(3)) (Cat. D273, Thermo Fisher Scientific). Cells were stained under culture conditions for 15 min, washed with prewarmed PBS, and examined by Guava EasyCyte flow cytometer (Merck-Millipore, USA). The results of flow cytometry were analyzed with Flowing Software 2.5.1 (Turku Bioscience, Finland).

HL60 [2] = details: HL60, CM-H2DCFDA, compound at 2-fold IC90
Procedure: (§7) Cell lines were cultured as mentioned above and seeded in Petri dishes (Falcon, Cary, NC, USA) in the amount of 25 × 10^3 per Φ35 dish. HEK293 cells were allowed to attach overnight. ROS generation potential was tested for selected compounds after 0.25, 0.5, 1, 3, 6, and 24 h of incubation. The CM-H2DCFDA molecular probe (Thermo Fisher Scientific, Waltham, MA, USA) at a final concentration of 1 µM was added 15 min before the analysis. After staining, HEK293 cells were trypsinized, harvested, and suspended in fresh media. The 7AAD (Cat. A9400, Sigma Aldrich) was added just before analysis. Analyses were carried out with a Guava EasyCyte flow cytometer (Merck-Millipore, USA). Flow cytometry data were processed with Flowing Software 2.5.1 (Turku Bioscience, Turku, Finland).

HEK293 [3] = details: HEK293, CM-H2DCFDA, compound at 2-fold IC90
Procedure: as §7

Candida krusei DSM 6128 = details: C. krusei, relative to IC50 of HL60
HL60 [4] = assay: MTT drug sensitivity assay on HL60; format: cell-based, human; details: normalized to EC50
Procedure: (§1) As mentioned in [61], we followed detailed procedures, including the composition of media and growth conditions, for the application of conjugate 4 on both HL60 and HEK293 in the MTT drug sensitivity assay. The initial cellular density for cultures seeded in a 96-well plate was 5000 cells/well for HL60 and 1500 cells/well for HEK293.
(§2) Supplementary Table S1. […] 4. […]
(§3) of incubation; The initial cellular density for HL60 was 5,000 cells, and for HEK293, it was 1,500 cells […]
(§4) Supplementary Table S2. […] The conversion from IC50 to EC50 was performed following the method outlined in [62]; For IC50 values, please refer to Supplementary […]
(§5) For MIC and IC50 data, please also refer to Ptaszyńska et al., 2019. Abbreviations: S. e. - Staphylococcus epidermidis ATCC 12228; B. s. - Bacillus subtilis ATCC 6633; S. a. - Staphylococcus aureus ATCC 25923; P. a - Pseudomonas aeruginosa ATCC 27853; B. c - Bacillus cereus PCM 2003; C. k. - Candida krusei DSM 6128; C. p. - Candida parapsilosis DSM 5784; C. a. - Candida albicans ATCC 10231; C. g. - Candida glabrata DSM 11226; C. t. - Candida […]

BT20 = assay: Cell proliferation (EC50, selectivity index) on BT20; format: cell-based, human; details: normalized to EC50
Procedure: (§6) To evaluate their effect on leukemia, cancer, and non-cancer cells, the Malignancy Selectivity Index was calculated as MSI = EC50 (non-cancerous)/EC50 (leukemic or cancerous) or EC50 (leukemic or cancerous)/EC50 (leukemic or cancerous).
as §2, §3, §4, §5

HEK293 [5] = assay: MTT drug sensitivity assay on HEK293; format: cell-based, human; details: normalized to EC50
Procedure: as §1, §2, §3, §4, §5

A549 = assay: Cell proliferation (EC50, selectivity index) on A549; format: cell-based, human; details: normalized to EC50
Procedure: as §6, §2, §3, §4, §5

Compound: CCCC[C@H](NC(=O)[C@H](CCCNC(=N)N)NC(=O)[C@H](Cc1c[nH]c2ccccc12)NC(=O)[C@H](CCC(N)=O)NC(=O)[C@H](Cc1c[nH]c2ccccc12)NC(=O)[C@H](CCCNC(=N)N)NC(=O)[C@H](CCCNC(=N)N)NC(=O)[C@H](CSSC[C@H](N)C(=O)N1CCN(c2cc3c(cc2F)c(=O)c(C(=O)O)cn3C2CC2)CC1)NC(=O)[C@H](CCCCN)NC(=O)[C@@H](N)Cc1ccccc1)C(N)=O [conjugate 3] (H-FKC(X1)RRWQWR[Nle]-NH2; N-terminus assumed)
- Reduction in number of events (7AAD vs. Annexin V) compared to LfcinB (S. aureus): more pronounced
- Impact on mitochondrial potential (HL60 [1]): minimal impact

Compound: CSCC[C@H](NC(=O)[C@H](CCCNC(=N)N)NC(=O)[C@H](Cc1c[nH]c2ccccc12)NC(=O)[C@H](CCC(N)=O)NC(=O)[C@H](Cc1c[nH]c2ccccc12)NC(=O)[C@H](CCCNC(=N)N)NC(=O)[C@H](CCCNC(=N)N)NC(=O)[C@H](CS)NC(=O)[C@H](CCCCN)NC(=O)[C@H](Cc1ccccc1)NC(=O)Cn1cc(CC(O)(Cn2cncn2)c2ccc(F)cc2F)nn1)C(N)=O (stereo partly shown) [conjugate 4] (X2-FKCRRWQWRM-NH2; N-terminus assumed)
- Levels of cellular ROS (HL60 [2]): negligible
- Levels of cellular ROS (HEK293 [3]): negligible

Compound: conjugate 1: covalently bonded LfcinB and LVX (FKCRRWQWRMKKLGAPSITCVRRAF; ends and bridges not checked; also: covalently bonded to levofloxacin, site not given here; UniProt P24627 36-60, looked up)
- FSI (Fungistatic Selectivity Index) (Candida krusei DSM 6128): 2.9
- Malignancy Selectivity Index, HL60 section, A549 column (HL60 [4]; A549 vs HL60): 8.9
- Malignancy Selectivity Index, HL60 section, BT20 column (HL60 [4]; BT20 vs HL60): 3.0
- Malignancy Selectivity Index, HL60 section, HEK293 column (HL60 [4]; HEK293 vs HL60): 39.4
- Malignancy Selectivity Index, BT20 section, A549 column (BT20; A549 vs BT20): 2.9
- Malignancy Selectivity Index, BT20 section, HEK293 column (BT20; HEK293 vs BT20): 13.1
- Malignancy Selectivity Index, BT20 section, HL-60 column (BT20; HL-60 vs BT20): 0.3
- Malignancy Selectivity Index, HEK293 section, A549 column (HEK293 [5]; A549 vs HEK293): 0.2
- Malignancy Selectivity Index, HEK293 section, BT20 column (HEK293 [5]; BT20 vs HEK293): 0.1
- Malignancy Selectivity Index, A549 section, BT20 column (A549; BT20 vs A549): 0.3
- Malignancy Selectivity Index, A549 section, HEK293 column (A549; HEK293 vs A549): 4.4
- Malignancy Selectivity Index, A549 section, HL-60 column (A549; HL-60 vs A549): 0.1
